The values below come from patent US12172959B2, “Mono- or di-substituted indole derivatives as dengue viral replication inhibitors” (priority 2015, dated 2024).

Usually CC50 stands for the concentration at which the toxic effect on the cells reaches its halfway point. Usually pEC50 stands for the EC50 on a negative log10 scale, so that one unit is a factor of ten.

Holding throughout (format): cell-based
Data set [1] deals with uninfected quiescent Vero-B or Vero-M cells. Description: in vitro. Conditions: African green monkey. The protocol: (§1) Potential cytotoxic effects of the compounds were evaluated in uninfected quiescent Vero-B or Vero-M cells. Cells were seeded at 5×10^4 cells/well in a 96-well plate in the presence of two-, three- or five-fold serial dilutions (ranging from 50 μg/mL-0.0038 μg/mL, 50 μg/mL-0.0076 μg/mL, and 50 μg/mL-0.00013 μg/mL, respectively) of compound and incubated for 4 to 7 days. Culture medium was discarded and 100 μL 3-(4,5-dimethylthiazol-2-yl)-5-(3-carboxy-methoxyphenyl)-2-(4-sulfophenyl)-2H-tetrazolium/phenazinemethosulfate (MTS/PMS; Promega, Leiden, The Netherlands) in PBS was added to each well. Following a 2-hour incubation period at 37° C., the optical density was determined at 498 nm. Cytotoxic activity was calculated using the following formula: % cell viability=100×(ODCompound/ODCC), where ODCompound and ODCC correspond to the optical density at 498 nm of the uninfected cell cultures treated with compound and that of uninfected, untreated cell cultures, respectively. The 50% cytotoxic concentration (i.e., the concentration that reduces the total cell number with 50%; CC50) was calculated using linear interpolation.

The next data set in a line: in vitro. The conditions noted are these: African green monkey, CC50. The protocol:
as §1

The subject of the next data set is DENV-3 strain H87. Description: Tetravalent RT-qPCR assay Protocol B, serotype 3. Conditions: Dengue virus, DENV3, 168 h, RT-qPCR serotype 3 H87, 7 days. On the procedure: The antiviral activity of the compounds of the invention was tested against DENV-1 strain Djibouti strain (D1/H/IMTSSA/98/606; Table 6), DENV-2 strain NGC (Table 7), DENV-3 strain H87 (Table 8) and DENV-4 strain SG/06K2270DK1/2005 (Table 9B) in a RT-qPCR assay. Vero-B or Vero-M cells (5×10^4) were seeded in 96-well plates. One day later, culture medium was replaced with 100 μL assay medium containing a 2×, 3× or 5× serial dilution of the compound (concentration range: 50 μg/mL-0.00038 μg/mL, 50 μg/mL-0.0076 μg/mL, and 50 μg/mL-0.00013 μg/mL, respectively) and 100 μL of dengue virus inoculum (DENV). Following a 2 hour incubation period, the cell monolayer was washed 3 times with assay medium to remove residual, non-adsorbed virus and cultures were further incubated for either 4 days (DENV-2 NGC) or 7 days (DENV-1 Djibouti strain D1/H/IMTSSA/98/606, DENV-3 strain H87 prototype, DENV-4 strain H241, and DENV-4 strain EDEN) in the presence of the inhibitor. Supernatant was harvested and viral RNA load was determined by real-time quantitative RT-PCR. The 50% effective concentration (EC50), which is defined as the compound concentration that is required to inhibit viral RNA replication by 50%, was determined using logarithmic interpolation.
RNA was isolated from 100 μL (or in some circumstances 150 μL) supernatant with the NucleoSpin 96 Virus kit (Filter Service, Duren, Germany) as described by the manufacturer. The sequences of the TaqMan primers (DENV-For, DENV-Rev; Table 5) and TaqMan probes (DENV-Probe Table 5) were selected from non-structural gene 3 (NS3) or NS5, of the respective flaviviruses using Primer Express software (version 2.0; Applied Biosystems, Lennik, Belgium). The TaqMan probe was fluorescently labelled with 6-carboxyfluorescein (FAM) at the 5′ end as the reporter dye, and with minor groove binder (MGB) at the 3′ end as the quencher (Table 5). One-step, quantitative RT-PCR was performed in a total volume of 25 μL, containing 13.9375 μL H2O, 6.25 μL master mix (Eurogentec, Seraing, Belgium), 0.375 μL forward primer, 0.375 μL reverse primer, 1 μL probe, 0.0625 μL reverse transcriptase (Eurogentec) and 3 μL sample. RT-PCR was performed using the ABI 7500 Fast Real-Time PCR System (Applied Biosystems, Branchburg, New Jersey, USA) using the following conditions: 30 min at 48° C. and 10 min at 95° C., followed by 40 cycles of 15 s at 95° C. and 1 min at 60° C. The data was analyzed using the ABI PRISM 7500 SDS software (version 1.3.1; Applied Biosystems). For absolute quantification, standard curves were generated using 10-fold dilutions of template preparations of known concentrations.
For orientation: Real-time PCR tracks product formation cycle by cycle.

pEC50: −log10 of the molar value.

As for `COc1cc(NC(C(=O)c2c[nH]c3cc(F)ccc23)c2ccc(Cl)cc2OC)cc(S(C)(=O)=O)c1` (single isomer, unassigned) [Compound 1A, 2-(4-chloro-2-methoxyphenyl)-1-(6-fluoro-1H-indol-3-yl)-2-((3-methoxy-5-(methylsulfonyl)phenyl)amino)ethanone], the results for the CC50 (in data set [1]; in “in vitro”) were 11 µM and 8 µM, respectively. Also, the pEC50 in the data set with DENV-3 strain H87 is > 7.82.

Regarding `COc1cc(NC(C(=O)c2c[nH]c3c(C)c(F)ccc23)c2ccc(Cl)cc2OC)cc(S(C)(=O)=O)c1` (single isomer, unassigned) [Compound 2A, 2-(4-chloro-2-methoxyphenyl)-1-(6-fluoro-7-methyl-1H-indol-3-yl)-2-((3-methoxy-5-(methylsulfonyl)phenyl)amino)ethanone], the CC50 in data set [1] amounted to 11 µM; in “in vitro”, 7.3 µM. In addition, the pEC50 with DENV-3 strain H87 was > 7.85.

In the case of `COc1cc(NC(C(=O)c2c[nH]c3cc(OC)c(C)cc23)c2ccc(Cl)cc2OC)cc(S(C)(=O)=O)c1` (single isomer, unassigned) [Compound 4A, 2-(4-chloro-2-methoxyphenyl)-2-((3-methoxy-5-(methyl-sulfonyl)phenyl)amino)-1-(6-methoxy-5-methyl-1H-indol-3-yl)ethanone], the 50% cytotoxic concentration (CC50) in data set [1] was found to be 6.6 µM; in “in vitro” it was 4.3 µM. The pEC50 in the data set on DENV-3 strain H87 is > 7.85.

With `COc1cc(NC(C(=O)c2c[nH]c3cc(OC)c(F)cc23)c2ccc(Cl)cc2OC)cc(S(C)(=O)=O)c1` (single isomer, unassigned) [Compound 5A, 2-(4-chloro-2-methoxyphenyl)-1-(5-fluoro-6-methoxy-1H-indol-3-yl)-2-((3-methoxy-5-(methylsulfonyl)phenyl)amino)ethanone], the midpoint of cytotoxicity in “in vitro”, the CC50, lay at 9.2 µM. Also, the pEC50 in the data set with DENV-3 strain H87 was 7.66.

As to `COc1cc(NC(C(=O)c2c[nH]c3c(C)c(OC)ccc23)c2ccc(Cl)cc2OC)cc(S(C)(=O)=O)c1` (single isomer, unassigned) [Compound 6A, 2-(4-chloro-2-methoxyphenyl)-2-((3-methoxy-5-(methyl-sulfonyl)phenyl)amino)-1-(6-methoxy-7-methyl-1H-indol-3-yl)ethanone], the CC50 (in data set [1]; in the data set “in vitro”) was > 92 µM throughout. Further, the pEC50 with DENV-3 strain H87 was > 7.85.
